Assay results published in US5464861A, “2-thioindoles (selenoindoles) and related disulfides (selenides) which inhibit protein tyrosine kinases and which have antitumor properties” (Warner-Lambert, priority 1993, dated 1995).
Like-named read-outs stand apart in the source and are kept apart here.

Biological target: T1, epidermal growth factor receptor tyrosine kinase (Homo sapiens, UniProt P00533)
T1 construct: A native 170,000 epidermal growth factor receptor-kinase complex from shed plasma membrane vesicles; endogenous in cells
Test: EGF receptor tyrosine kinase assay (P^32 incorporation in GAT)
Format: biochemical
Conditions: for inhibition at 100 µM: EGRF-R, read-out: % Inhibition at 100 μM (EGFR TK)
Method: At the time of assay, membranes were solubilized in 4% Triton X-100 and glycerol. The reaction is carried out in wells of a 96-well microtiter plate in a total volume of […]. Buffer containing 20 mMHepes (pH 7.4), 15 mMMgCl2, mM MnCl2, and 0.02% BSA followed by […] of membrane protein and 150 ng of epidermal growth factor. The plates are incubated for 10 minutes at room temperature to activate the receptor kinase. […] ATP plus or minus compound are added and incubated 10 minutes at room temperature.

[1] = Table 2, EGRF-R, IC50 entries, read-out: IC50 (EGFR TK)

T1 sequence (P00533 25-1210): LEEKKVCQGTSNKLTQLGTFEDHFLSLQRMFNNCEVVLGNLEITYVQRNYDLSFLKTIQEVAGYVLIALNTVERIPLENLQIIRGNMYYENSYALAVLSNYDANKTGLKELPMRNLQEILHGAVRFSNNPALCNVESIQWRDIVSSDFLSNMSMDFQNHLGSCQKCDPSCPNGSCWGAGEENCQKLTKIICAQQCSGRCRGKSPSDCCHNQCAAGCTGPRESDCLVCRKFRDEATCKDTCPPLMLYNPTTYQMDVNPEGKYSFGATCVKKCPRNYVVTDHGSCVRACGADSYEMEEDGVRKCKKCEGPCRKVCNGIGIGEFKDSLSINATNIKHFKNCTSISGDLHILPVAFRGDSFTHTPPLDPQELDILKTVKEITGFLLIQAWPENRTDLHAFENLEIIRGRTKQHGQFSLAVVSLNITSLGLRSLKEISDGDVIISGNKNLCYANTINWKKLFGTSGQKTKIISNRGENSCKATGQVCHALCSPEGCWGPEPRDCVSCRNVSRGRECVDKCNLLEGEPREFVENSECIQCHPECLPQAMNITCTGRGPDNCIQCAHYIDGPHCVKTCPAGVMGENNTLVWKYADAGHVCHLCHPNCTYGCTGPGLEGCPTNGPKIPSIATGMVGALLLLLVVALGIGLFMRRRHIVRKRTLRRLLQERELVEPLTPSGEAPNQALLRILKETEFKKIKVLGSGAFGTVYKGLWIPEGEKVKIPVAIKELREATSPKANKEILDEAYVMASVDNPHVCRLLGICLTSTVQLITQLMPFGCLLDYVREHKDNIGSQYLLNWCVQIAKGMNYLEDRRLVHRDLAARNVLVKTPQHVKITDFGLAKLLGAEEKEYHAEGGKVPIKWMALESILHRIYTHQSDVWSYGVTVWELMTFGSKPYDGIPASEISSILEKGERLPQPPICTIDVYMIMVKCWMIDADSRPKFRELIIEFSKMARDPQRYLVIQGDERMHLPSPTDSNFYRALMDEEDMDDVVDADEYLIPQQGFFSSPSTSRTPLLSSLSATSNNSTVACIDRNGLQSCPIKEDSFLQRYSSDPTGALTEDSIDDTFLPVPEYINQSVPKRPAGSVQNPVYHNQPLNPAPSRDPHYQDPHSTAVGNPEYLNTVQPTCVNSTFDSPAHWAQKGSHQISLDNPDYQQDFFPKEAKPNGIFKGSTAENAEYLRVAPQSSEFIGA
T1 sequence (P01133 971-1023 partner limits assumed): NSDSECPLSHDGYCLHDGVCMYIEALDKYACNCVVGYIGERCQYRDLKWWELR

Row | Compound | IC50 [1] | inhibition at 100 µM | also measured
1 | Cc1ccc2c(CCC(=O)O)c(SSc3[nH]c4cc(C)ccc4c3CCC(=O)O)[nH]c2c1 [Compound 43, bis[methylindolyl-3-propanoate-(2)]disulfide] | 2.9 µM |  | 
2 | Cn1c([Se][Se]c2c(C(=O)O)c3ccccc3n2C)c(C(=O)O)c2ccccc21 [Compound 130, 2,2'-diselenobis [1-methyl-1H-indole-3-carboxylic acid]] |  |  | IC50 (read-out: IC50 (EGFR TK)): 3.5 µM
3 | CNC(=O)c1c(SSc2[nH]c3ccccc3c2C(=O)NC)[nH]c2ccccc12 [Compound 127, 2,2'-dithiobis[N-methylindolinyl-3-carboxamide]] | 6.8 µM |  | 
4 | CCOC(=O)CCC1C(=S)N(C)c2ccccc21 (centres unmarked) [Compound 12, ethyl 3-(1-methyl-2-thioxo-3-indolinyl)propanoate] |  | 3% | 
5 | O=[N+]([O-])CCc1c(SSc2[nH]c3ccccc3c2CC[N+](=O)[O-])[nH]c2ccccc12 [Compound 49, 2,2'-dithiobis[3-(2-nitroethyl)indole]] |  |  | IC50: 84.1 µM
6 | CCN(CC)CCn1c([Se][Se]c2c(C(=O)NC)c3ccccc3n2CCN(CC)CC)c(C(=O)NC)c2ccccc21 [Compound 135, 2,2'-diselenobis [1-[2-(diethylamino)ethyl] -N-methyl-1H-indole-3-carboxamide]] |  |  | IC50 (read-out: IC50 (EGFR TK)): 6.9 µM
7 | O=C(NCc1ccccc1)C(O)Cc1c(SSc2[nH]c3ccccc3c2CC(O)C(=O)NCc2ccccc2)[nH]c2ccccc12 (stereo not drawn) [Compound 64, 2,2'-dithiobis[α-hydroxy-N -(phenylmethyl)-1H-indole-3-propanamide]] | 29 µM |  | 
8 | Cn1c([Se][Se]c2c(C(=O)OC(C)(C)C)c3ccccc3n2C)c(C(=O)OC(C)(C)C)c2ccccc21 [Compound 129, 2,2'-diselenobis [1-methyl-1H-indole-3-carboxylic acid, t-butyl ester]] |  | 31% | 
9 | CN1C(=S)C(CC(=O)O)c2ccccc21 (centres unmarked) [Compound 2, 2-(1-methyl-2-thioxo-3-indolinyl)acetic acid] |  | 26% | 
10 | Cn1c(SSc2c(C(=O)Nc3ccccn3)c3ccccc3n2C)c(C(=O)Nc2ccccn2)c2ccccc21 [Compound 122, 2,2'-dithiobis [N-(2'-pyridyl)-1-methylindole-3-carboxamide]] |  | 51% | 
11 | CN(C)C(=O)CCc1c(SSc2[nH]c3ccccc3c2CCC(=O)N(C)C)[nH]c2ccccc12 [Compound 53] | 4.2 µM |  | 
12 | Cn1c(SSc2c(CCC(=O)O)c3ccccc3n2C)c(CCC(=O)O)c2ccccc21 [Compound 37] | 3.3 µM |  | 
13 | CN1C(=S)C(C(=O)Nc2ccccc2)c2cc(Cl)ccc21 (centres unmarked) [Compound 20, N-phenyl 5-chloro-1-methyl-2-thioxoindole-3-carboxamide] | 9 µM |  | 
14 | CC(=O)c1c(SSc2c(C(C)=O)c3ccccc3n2C)n(C)c2ccccc12 [Compound 121, 2,2'-dithiobis(3-acetyl-1-methylindole)] | 5.6 µM |  | 
15 | CN1C(=S)C(C(=O)c2ccc(C(=O)O)cc2)c2ccccc21 (centres unmarked) [Compound 25, 3-(4'-carboxybenzoyl)-1-methyl-2-indolinethione] | 8.7 µM |  | 
16 | O=C(O)CCCC1C(=S)Nc2ccccc21 (centres unmarked) [Compound 15, 4-(2-thioxo-3-indolinyl)butanoic acid] | 6.8 µM |  | 
17 | CC(=O)Oc1ccc2c(C(=O)Nc3ccccc3)c(SSc3c(C(=O)Nc4ccccc4)c4ccc(OC(C)=O)cc4n3C)n(C)c2c1 [Compound 93, 2,2'-dithiobis [N-phenyl-6-acetoxy-1-methylindolyl-3-carboxamide]] |  | 30% | 
18 | COC(=O)CCCC1C(=S)Nc2ccccc21 (centres unmarked) [Compound 17, methyl 4-(2-thioxo-3-indolinyl)butanoate] |  | 12.5% | 
19 | CN1C(=S)C(CCC(=O)O)c2ccccc21 (centres unmarked) [Compound 8, 3-(1-methyl-2-thioxo-3-indolinyl)propanoic acid] | 8.5 µM |  | 
20 | Cn1c(SSc2c(C(=O)c3ccc(C(=O)O)cc3)c3ccccc3n2C)c(C(=O)c2ccc(C(=O)O)cc2)c2ccccc21 [Compound 101, bis[3-(4'-carboxybenzoyl)-1-methylindole-(2)]disulfide] | 5.5 µM |  | 
